Reference: patent US12173018B2, “Penicillin-binding protein inhibitors” (priority 2018, dated 2024)
pEC50: −log10 of the molar value. ≈ marks a conversion by molar mass, not a printed value. Where two headings read alike, the source gives them in different places.

Key:
E. coli PBP1b = E. coli PBP1b (Escherichia coli (strain K12), UniProt P02919); assay: Radioligand competition binding assay with 14C-labeled boronic acid probe, PBP1b
Excerpt: To determine the ability of boronic acid-based test PBP inhibitors to bind Penicillin Binding Proteins (PBPs), a radio-labelled boronic acid PBP inhibitor
[drawing 751] was used in competition binding assays to determine boronic acid PBP inhibitor binding to PBP1a or PBP1b from Escherichia coli. PBP1a and PBP1b were purified as described previously (Bertsche, U.; et al., J. Biol. Chem. 2005, 280 (45), 38096-38101; Born, P.; et al., J. Biol. Chem. 2006. 281 (37), 26985-26993). To establish assay conditions for competition binding, an enzyme titration/saturation binding experiment was performed. Saturation binding was performed in a buffer comprised of 20 mM Tris (pH 7.5), 500 mM NaCl and 0.1% (v/v) TritonX-100, with PBP1a/PBP1b at a final concentration of 0.1 μM and Compound A at final concentrations ranging from 0-100 μM. Mixtures were incubated for 60 minutes, then applied to Zeba Spin Desalting columns or plates (ThermoFisher Scientific) and centrifuged at 1000-1500×g for 2 minutes. The flow through, containing PBP bound with Compound A, was recovered and 100 μL mixed with 5 mL of UltimaGold liquid scintillation cocktail (Perkin Elmer), and the radioactivity counted using a Beckman Coulter LS 6500 Multipurpose scintillation counter. PBP binding of Compound A approached saturation at 20 μM of ^14C-labeled probe. The competition binding assay was validated using the beta-lactam ampicillin, with Compound A at a final concentration of 20 μM, PBP1a/PBP1b at a final concentration of 0.1 μM. PBP1a/PBP1b was incubated with ampicillin in a 96-well microplate for 60 minutes, then Compound A was added and the mixtures incubated for an additional 60 minutes. The mixtures were then applied to Zeba Spin desalting plates and centrifuged at 1000×g for 2 minutes. The flow through was recovered and 100 μl mixed with 5 ml of UltimaGold liquid scintillation cocktail and the radioactivity counted. […] Binding assays with boronic acid PBP inhibitors were performed in an identical fashion. The potency of boronic acid PBP inhibitors was reported as the EC50 value.

E. coli PBP3 = E. coli PBP3 (Escherichia coli (strain K12), UniProt P0AD68); assay: E. coli PBP3 Bocillin-FL fluorescence polarization competition binding assay
How it was run: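 Purified E. coli PBP (1.5 μM final) competed with inhibitor (0-1000 μM) for Bocillin-FL (0.1 μM final) in 50 mM Hepes pH 8.0, 300 mM NaCl, 5% glycerol. Fluorescence polarization (ex 490/em 520 nm) was read continuously for 60 min after Bocillin-FL addition. EC50 was the concentration that reduced Bocillin-FL binding by 50%.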

N. gonorrhoeae WHO F = assay: Liquid broth MIC, N. gonorrhoeae WHO F; format: cell-based; settings: Neisseria gonorrhoeae; N. gonorrhoeae WHO F, liquid broth; read-out: Minimum Inhibitory Concentration, N. gonorrhoeae WHO F
Method: (§1) Additional antibacterial testing of the series was performed in wild-type reference strains of N. gonorrhoeae (ATCC 49226, FA1090, WHO F and FA19). Liquid broth-based assays were used for antibacterial testing of PBP inhibitors in Neisseria gonorrhoeae. Briefly, cryo-preserved bacterial cultures of clinical strains are streaked for isolation on GC Base agar (BD #228950 at 36 g/L autoclaved at 121° C. for 20 minutes to sterilize) with 1% Kellogg's supplement (40 g glucose, 0.5 g glutamine, 0.05 g ferric nitrate and 2 mg cocarboxylase per 100 mL deionized water filter sterilized through 0.2 μm syringe filters). Following incubation at 36° C. and 5% CO2 to allow growth of colonies, strains are aseptically sub-cultured from original agar plate onto 3 agar plates per strain 24 hours before inoculum preparation. 2-fold serial dilutions of test compounds are conducted in a 96 well plate with a final volume of 150 μL per well at 4/3-fold the final desired concentration. For preparation of assay inoculum, a direct suspension is prepared by aseptically swabbing all colonies from sub-cultured agar plates into culture tubes containing 2 mL of fresh GC broth with […]. After the dilution plates are set up, direct suspensions are then diluted in a cuvette containing GC broth (15 g proteose peptone 43, 1 g corn starch, 4 g dipotassium phosphate, 1 g monopotassium phosphate and 5 g sodium chloride per liter of deionized water are mixed on a stir plate for 20 minutes, pH adjusted to 7.2+/−0.2 pH units with 1 N HCl, centrifuged at 10,000×g for 20 minutes to pellet undissolved corn starch and then autoclaved at 121° C. for 20 minutes to sterilize) and the optical density is measured at 600 nm. Inocula are diluted such that 50 μL of this culture in […] results in a starting bacterial concentration of 5×10^5 CFU/mL when added to the dilution plates. The plates are incubated 40-42 hours at 36° C. and 5% CO2. The MIC is read visually as the lowest concentration well with no bacterial growth.

[1] = test system: engineered strain of Escherichia coli harboring CTX-M15; assay: microbe, parasite or virus in culture; format: cell-based; settings: Escherichia coli, read-out: Microbiological Activity (MIC in mg/L), E. coli DH5α/pLBII-CTX-M15, engineered strain producing CTX-M15
Method: Briefly, cryo-preserved bacterial cultures of challenge strains are streaked for isolation on appropriate agar medium, in this case Mueller Hinton II agar. Following incubation to allow growth of the colonies, plates are sealed with parafilm and stored refrigerated for up to two weeks. For preparation of assay inoculum and to ensure low variability, at least 5 colonies are picked from the agar plates with an inoculating loop and aseptically transferred to a culture tube containing 3 mL of Mueller-Hinton Broth (supplemented with divalent cations to required levels based on Manufacturers' certification). The broth culture is grown for 3-5 hours at 37° C. with shaking at 200 rpm. Meanwhile, 2-fold serial dilutions of test compounds are conducted in a 96 well plate with a final volume of 75 μL per well at 2-fold the final desired concentration. After the dilution plates are set up the growing cultures are then diluted in a cuvette containing MH II broth and the optical density is measured at 600 nm. The Inoculum is diluted such that 75 μL of this culture in Mueller-Hinton Broth results in a starting bacterial concentration of 5×10^5 CFU/mL when added to the dilution plates. The plates are incubated for 16-20 hours at 37° C. The MIC values are read visually as the lowest concentration well with no bacterial growth.
To determine if test compounds were affected by CTX-M15, the most abundant extended spectrum […] in clinical settings worldwide, the inhibition of the growth of an engineered strain of Escherichia coli harboring CTX-M15 was tested. This strain was constructed by cloning the gene encoding CTX-M15 into the NdeI and BamHI restriction endonuclease sites of plasmid pLBII, placing the gene(s) under the control of the Lac promoter. The constructed expression plasmid for CTX-M15 was used to transform competent E. coli DH5α cells to make the engineered strain, including an empty pLBII vector control strain. The classic cell based broth microdilution MIC assay was employed as described above with the addition of control antibiotics, known to be degraded by β-lactamases (Ceftazidime, piperacillin and piperacillin+tazobactam).

N. gonorrhoeae FA19 = assay: Liquid broth MIC, N. gonorrhoeae FA19; format: cell-based; settings: Neisseria gonorrhoeae; N. gonorrhoeae FA19, liquid broth; read-out: Minimum Inhibitory Concentration, N. gonorrhoeae FA19
Method: as §1

N. gonorrhoeae FA1090 = assay: Liquid broth MIC, N. gonorrhoeae FA1090; format: cell-based; settings: Neisseria gonorrhoeae; N. gonorrhoeae FA1090, liquid broth; read-out: Minimum Inhibitory Concentration, N. gonorrhoeae FA1090
Method: as §1

[2] = test system: N. gonorrhoeae ATCC 49226; assay: Liquid broth MIC, N. gonorrhoeae ATCC 49226; format: cell-based; settings: Neisseria gonorrhoeae, ATCC49226; N. gonorrhoeae ATCC 49226, liquid broth; read-out: Minimum Inhibitory Concentration, N. gonorrhoeae ATCC 49226
Method: as §1

K. pneumoniae 848844 = assay: microbe, parasite or virus in culture; format: cell-based, Klebsiella pneumoniae; settings: Klebsiella pneumoniae; K. pneumoniae 848844 producing SHV-11 and KPC-2; read-out: MIC K. pneumoniae 848844
How it was run: (§2)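 Broth microdilution MICs followed CLSI methods in cation-supplemented Mueller-Hinton broth, with 2-fold serial compound dilutions. Log-phase cultures grown 3–5 h were added to a starting inoculum of 5×10^5 CFU/mL and incubated 16–20 h at 37 °C. The MIC was read visually as the lowest concentration with no growth.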

E. coli AG100 = assay: Broth microdilution MIC, E. coli AG100 (wild-type parent); format: cell-based; settings: Escherichia coli; wild-type parent E. coli AG100, broth microdilution; read-out: MIC E. coli AG100
How it was run: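 Broth microdilution in cation-supplemented Mueller-Hinton broth, 2-fold serial compound dilutions, inoculum 5×10^5 CFU/mL from 3-5 h log culture.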

E. coli 901C = assay: microbe, parasite or virus in culture; format: cell-based; settings: Escherichia coli; hyper-permeable E. coli 901C, broth microdilution; read-out: MIC E. coli 901C
How it was run: as §2

E. coli AG100A = assay: microbe, parasite or virus in culture; format: cell-based; settings: Escherichia coli, read-out: MIC E. coli AG100A
How it was run: as §2

K. pneumoniae SI-117 = assay: microbe, parasite or virus in culture; format: cell-based; settings: Klebsiella pneumoniae, SI117, read-out: MIC K. pneumoniae SI-117
How it was run: as §2

E. coli D22 = assay: microbe, parasite or virus in culture; format: cell-based; settings: Escherichia coli; hyper-permeable E. coli D22, broth microdilution; read-out: MIC E. coli D22
How it was run: as §2

K. pneumoniae UMM = assay: microbe, parasite or virus in culture; format: cell-based; settings: Klebsiella pneumoniae; K. pneumoniae UMM producing SHV-5 and KPC-2; read-out: MIC K. pneumoniae UMM
How it was run: as §2

E. coli ATCC 25922 = assay: Broth microdilution MIC, E. coli ATCC 25922; format: cell-based; settings: Escherichia coli, ATCC25922; E. coli ATCC 25922, broth microdilution; read-out: MIC E. coli 25922
How it was run: as §2

[3] = fluorescence polarization competition binding with Bocillin-FL, read-out: E. coli K12 PBP3 Potency

Chain of E. coli PBP1b (P02919 whole entry): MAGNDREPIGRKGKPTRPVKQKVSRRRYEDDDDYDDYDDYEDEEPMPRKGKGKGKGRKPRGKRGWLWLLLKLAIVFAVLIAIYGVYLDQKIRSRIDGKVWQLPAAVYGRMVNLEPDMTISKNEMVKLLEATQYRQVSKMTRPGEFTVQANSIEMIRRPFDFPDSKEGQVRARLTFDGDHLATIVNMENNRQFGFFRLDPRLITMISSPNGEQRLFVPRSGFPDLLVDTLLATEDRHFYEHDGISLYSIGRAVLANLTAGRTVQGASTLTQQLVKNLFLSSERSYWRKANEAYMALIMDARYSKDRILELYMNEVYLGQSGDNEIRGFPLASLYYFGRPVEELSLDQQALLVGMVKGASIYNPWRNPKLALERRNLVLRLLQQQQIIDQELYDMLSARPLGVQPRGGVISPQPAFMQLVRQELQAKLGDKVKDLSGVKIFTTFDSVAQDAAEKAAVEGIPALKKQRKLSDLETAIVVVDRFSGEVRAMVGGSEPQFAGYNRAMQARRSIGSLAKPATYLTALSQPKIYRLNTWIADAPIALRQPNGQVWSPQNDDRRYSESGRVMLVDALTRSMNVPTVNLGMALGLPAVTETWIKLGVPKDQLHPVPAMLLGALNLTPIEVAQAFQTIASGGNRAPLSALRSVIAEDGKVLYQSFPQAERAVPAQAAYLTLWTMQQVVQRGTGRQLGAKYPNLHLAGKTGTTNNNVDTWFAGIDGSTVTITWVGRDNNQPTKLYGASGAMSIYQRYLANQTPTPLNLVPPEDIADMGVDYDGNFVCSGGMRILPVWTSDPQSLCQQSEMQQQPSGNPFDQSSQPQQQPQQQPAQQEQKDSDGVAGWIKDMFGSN
Chain of E. coli PBP3 (P0AD68 whole entry): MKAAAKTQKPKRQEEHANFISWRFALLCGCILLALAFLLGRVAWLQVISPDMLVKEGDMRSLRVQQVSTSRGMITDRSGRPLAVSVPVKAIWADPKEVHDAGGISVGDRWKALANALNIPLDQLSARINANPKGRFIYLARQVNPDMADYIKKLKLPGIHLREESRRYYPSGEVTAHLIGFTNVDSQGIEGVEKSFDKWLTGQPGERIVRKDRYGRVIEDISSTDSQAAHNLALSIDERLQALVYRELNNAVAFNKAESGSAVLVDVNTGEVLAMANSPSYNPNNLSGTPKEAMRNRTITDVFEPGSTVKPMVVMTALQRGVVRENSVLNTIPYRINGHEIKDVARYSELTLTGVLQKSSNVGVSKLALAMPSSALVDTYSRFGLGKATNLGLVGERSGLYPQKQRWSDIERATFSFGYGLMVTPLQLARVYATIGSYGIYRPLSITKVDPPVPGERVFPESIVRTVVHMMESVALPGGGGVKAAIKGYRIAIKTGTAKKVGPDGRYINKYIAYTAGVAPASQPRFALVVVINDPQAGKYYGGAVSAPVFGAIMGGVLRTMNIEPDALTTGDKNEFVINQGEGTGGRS

Compound: CCN1CCN(C(=O)NC(CC(=O)N[C@H]2Cc3cccc(C(=O)O)c3OB2O)c2cc(O)c(O)c(Cl)c2)C(=O)C1=O (stereo partly drawn) [Example 43, (3R)-3-(3-(3-chloro-4,5-dihydroxyphenyl)-3-(4-ethyl-2,3-dioxopiperazine-1-carboxamido)propanamido)-2-hydroxy-3,4-dihydro-2H-benzo[e][1,2]oxaborinine-8-carboxylic acid]
- pEC50 (E. coli PBP1b): 4.00 to 5.00
- pEC50 (E. coli PBP3): 3.30 to 4.52

Compound: CCN1CCN(C(=O)NC(C(=O)N[C@H]2Cc3cccc(C(=O)O)c3OB2O)C(O)c2ccc(O)c(O)c2Cl)C(=O)C1=O (stereo partly drawn) [Example 47, (3R)-3-(3-(2-chloro-3,4-dihydroxyphenyl)-2-(4-ethyl-2,3-dioxopiperazine-1-carboxamido)-3-hydroxypropanamido)-2-hydroxy-3,4-dihydro-2H-benzo[e][1,2]oxaborinine-8-carboxylic acid]
- pEC50 (E. coli PBP1b): 4.00 to 5.00
- pEC50 (E. coli PBP3; [3]): < 3.30

Compound: CCN1CCN(C(=O)NC(C(=O)N[C@H]2Cc3cccc(C(=O)O)c3OB2O)C(O)c2cccc(O)c2O)C(=O)C1=O (stereo partly drawn) [Example 48, (3R)-3-(3-(2,3-dihydroxyphenyl)-2-(4-ethyl-2,3-dioxopiperazine-1-carboxamido)-3-hydroxypropanamido)-2-hydroxy-3,4-dihydro-2H-benzo[e][1,2]oxaborinine-8-carboxylic acid]
- pEC50 (E. coli PBP1b): > 5.00
- pEC50 (E. coli PBP3; [3]): < 3.30

Compound: O=C(O)c1cccc2c1OB(O)[C@@H](NC(=O)C(NC(=O)N1CCNC1=O)c1ccc(O)c(O)c1Cl)C2 (stereo partly drawn) [Example 52, (3R)-3-(2-(2-chloro-3,4-dihydroxyphenyl)-2-(2-oxoimidazolidine-1-carboxamido)acetamido)-2-hydroxy-3,4-dihydro-2H-benzo[e][1,2]oxaborinine-8-carboxylic acid]
- MIC (N. gonorrhoeae WHO F): < 0.125 µg/mL
- MIC [1]: 128 to 256 mg/L (≈ 247 to 494 µM)
- MIC (N. gonorrhoeae FA19): > 64 µg/mL
- MIC (N. gonorrhoeae FA1090): < 0.125 µg/mL
- MIC [2]: 0.25 to 0.5 µg/mL (≈ 0.482 to 0.964 µM)

Compound: CCN1CCN(C(=O)NC(C(=O)N[C@H]2Cc3cccc(C(=O)O)c3OB2O)c2ccccn2)C(=O)C1=O (stereo partly drawn) [Example 56, (3R)-3-(2-(4-ethyl-2,3-dioxopiperazine-1-carboxamido)-2-(pyridin-2-yl)acetamido)-2-hydroxy-3,4-dihydro-2H-benzo[e][1,2]oxaborinine-8-carboxylic acid]
- pEC50 (E. coli PBP1b): < 4.00

Compound: CCN1CCN(C(=O)NC(C(=O)N[C@H]2Cc3cccc(C(=O)O)c3OB2O)c2ccc(-c3nnn[nH]3)cc2)C(=O)C1=O (some centres unmarked) [Example 93]
- MIC (N. gonorrhoeae WHO F): < 0.125 µg/mL
- MIC [1]: 32 to 64 mg/L (≈ 55.5 to 111 µM)
- MIC (N. gonorrhoeae FA19): 4 to 8 µg/mL (≈ 6.94 to 13.9 µM)
- MIC (N. gonorrhoeae FA1090): 0.25 to 0.5 µg/mL (≈ 0.434 to 0.868 µM)
- pEC50 (E. coli PBP3; [3]): > 4.52
- MIC [2]: 4 to 8 µg/mL (≈ 6.94 to 13.9 µM)

Compound: CCN1CCN(C(=O)NC(C(=O)N[C@H]2Cc3cccc(C(=O)O)c3OB2O)C(Cl)CCCO)C(=O)C1=O (stereo partly drawn) [Example 130, (3R)-3-(3-chloro-2-(4-ethyl-2,3-dioxopiperazine-1-carboxamido)-6-hydroxyhexanamido)-2-hydroxy-3,4-dihydro-2H-benzo[e][1,2]oxaborinine-8-carboxylic acid]
- pEC50 (E. coli PBP1b; read-out: E. coli K12 PBP1b EC50, competition binding with 14C-labeled boronic acid probe): < 4.00

Compound: O=C(O)c1cccc2c1OB(O)[C@@H](NC(=O)C(NC(=O)N1C[C@@H]3CCCN3C(=O)C1=O)c1ncc(O)cc1F)C2 (stereo partly drawn) [Example 223, (3R)-3-(2-((S)-3,4-dioxooctahydropyrrolo[1,2-a]pyrazine-2-carboxamido)-2-(3-fluoro-5-hydroxypyridin-2-yl)acetamido)-2-hydroxy-3,4-dihydro-2H-benzo[e][1,2]oxaborinine-8-carboxylic acid]
- MIC (N. gonorrhoeae WHO F): 1 to 2 µg/mL (≈ 1.8 to 3.6 µM)
- MIC (K. pneumoniae 848844): > 128 µg/mL
- MIC (E. coli AG100): > 128 µg/mL
- MIC (E. coli 901C): 8 to 16 µg/mL
- MIC (E. coli AG100A): 32 to 64 µg/mL
- MIC (K. pneumoniae SI-117): > 128 µg/mL
- MIC (E. coli D22): 32 to 64 µg/mL
- MIC (K. pneumoniae UMM): > 128 µg/mL
- MIC (N. gonorrhoeae FA19): > 64 µg/mL
- MIC (N. gonorrhoeae FA1090): 1 to 2 µg/mL (≈ 1.8 to 3.6 µM)
- pEC50 (E. coli PBP3): 3.30 to 4.52
- MIC [2]: > 64 µg/mL
- MIC (E. coli ATCC 25922): > 128 µg/mL
